Results as given in ChEMBL document CHEMBL1150976, “The selectivity of protein kinase inhibitors: a further update” (Biochem J, 2007).
Values belong to the compound of their own block, whether it stands above or below them. Calls of active or inactive are those of the source. No cut-off for these calls is given here.

Tests used:
[1] = target: Serine/threonine-protein kinase D1 (Homo sapiens, UniProt Q15139); experiment: Inhibition of PKD1 in the presence of 50uM ATP
[2] = target: Proto-oncogene tyrosine-protein kinase LCK (Mus musculus, UniProt P06240); experiment: Inhibition of Lck in the presence of 50uM ATP
[3] = target: T1, Receptor-interacting serine/threonine-protein kinase 2 (Homo sapiens, UniProt O43353); experiment: Inhibition of RIP2 in the presence of 100uM ATP
[4] = target: T1, Receptor-interacting serine/threonine-protein kinase 2; experiment: Percentage RIP2 activity remaining in the presence of 10uM inhibitor; settings: filed as antagonist
[5] = target: Mitogen-activated protein kinase 8 (Homo sapiens, UniProt P45983, M108A); experiment: Inhibition of JNK-M108A in the presence of 20uM ATP
[6] = target: Mitogen-activated protein kinase 8 (Homo sapiens, UniProt P45983, M108G); experiment: Inhibition of JNK-M108G in the presence of 20uM ATP
[7] = target: cAMP-dependent protein kinase catalytic subunit alpha (Homo sapiens, UniProt P17612); experiment: Inhibition of PKA in the presence of 20uM ATP
[8] = target: Tyrosine-protein kinase CSK (Homo sapiens, UniProt P41240); experiment: Inhibition of CSK in the presence of 20uM ATP
[9] = target: T2, Cyclin-G-associated kinase (Homo sapiens) (UniProt O14976); experiment: Percentage GAK activity remaining in the presence of 1uM inhibitor; settings: filed as antagonist
T2 sequence (whole entry): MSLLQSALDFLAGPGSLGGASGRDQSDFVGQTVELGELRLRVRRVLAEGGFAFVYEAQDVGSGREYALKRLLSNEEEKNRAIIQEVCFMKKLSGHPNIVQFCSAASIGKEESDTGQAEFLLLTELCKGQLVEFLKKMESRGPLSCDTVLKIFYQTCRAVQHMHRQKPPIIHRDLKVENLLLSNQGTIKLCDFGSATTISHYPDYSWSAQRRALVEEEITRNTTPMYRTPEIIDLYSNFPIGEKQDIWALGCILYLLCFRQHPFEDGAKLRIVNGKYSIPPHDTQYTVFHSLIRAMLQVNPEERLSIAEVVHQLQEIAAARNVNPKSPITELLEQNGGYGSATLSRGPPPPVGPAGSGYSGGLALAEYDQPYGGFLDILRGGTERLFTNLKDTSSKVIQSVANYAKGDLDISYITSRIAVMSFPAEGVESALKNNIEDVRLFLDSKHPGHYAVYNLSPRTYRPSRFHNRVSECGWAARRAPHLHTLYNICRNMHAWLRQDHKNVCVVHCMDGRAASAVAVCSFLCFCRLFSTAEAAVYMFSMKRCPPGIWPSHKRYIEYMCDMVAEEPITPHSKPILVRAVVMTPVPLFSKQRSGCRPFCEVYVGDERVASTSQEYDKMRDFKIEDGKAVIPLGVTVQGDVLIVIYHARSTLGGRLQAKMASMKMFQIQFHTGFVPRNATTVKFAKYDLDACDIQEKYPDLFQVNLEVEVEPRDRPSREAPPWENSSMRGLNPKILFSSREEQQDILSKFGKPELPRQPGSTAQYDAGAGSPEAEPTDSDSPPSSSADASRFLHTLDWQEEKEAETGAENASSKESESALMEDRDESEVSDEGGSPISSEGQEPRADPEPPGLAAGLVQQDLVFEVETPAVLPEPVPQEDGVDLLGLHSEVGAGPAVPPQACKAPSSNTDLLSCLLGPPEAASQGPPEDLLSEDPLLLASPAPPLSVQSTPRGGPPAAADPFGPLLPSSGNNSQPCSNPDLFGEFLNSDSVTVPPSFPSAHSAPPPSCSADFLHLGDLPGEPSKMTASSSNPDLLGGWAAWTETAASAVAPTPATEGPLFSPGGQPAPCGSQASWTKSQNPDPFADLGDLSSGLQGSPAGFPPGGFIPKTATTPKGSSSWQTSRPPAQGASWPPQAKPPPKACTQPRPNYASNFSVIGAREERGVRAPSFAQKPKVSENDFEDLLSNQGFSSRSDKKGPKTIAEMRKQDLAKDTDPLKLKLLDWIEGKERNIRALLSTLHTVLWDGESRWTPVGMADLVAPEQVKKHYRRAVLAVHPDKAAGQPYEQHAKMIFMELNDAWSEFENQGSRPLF

[10] = target: T1, Receptor-interacting serine/threonine-protein kinase 2; experiment: Percentage RIP2 activity remaining in the presence of 1uM inhibitor; settings: filed as antagonist
[11] = target: T2, Cyclin-G-associated kinase (Homo sapiens); experiment: Percentage GAK activity remaining in the presence of 10uM inhibitor; settings: filed as antagonist
[12] = target: Mitogen-activated protein kinase 8 (Homo sapiens, UniProt P45983); experiment: Inhibition of JNK1 in the presence of 20uM ATP
[13] = target: T3, Serine/threonine-protein kinase pim-3 (Homo sapiens, UniProt Q86V86); experiment: Inhibition of PIM3 in the presence of 5uM ATP
[14] = target: Serine/threonine-protein kinase pim-1 (Homo sapiens, UniProt P11309); experiment: Inhibition of PIM1 in the presence of 20uM ATP
[15] = target: Dual specificity tyrosine-phosphorylation-regulated kinase 2 (Homo sapiens, UniProt Q92630); experiment: Inhibition of DYRK2 in the presence of 50uM ATP
[16] = target: Glycogen synthase kinase-3 beta (Homo sapiens, UniProt P49841); experiment: Inhibition of GSK3-beta in the presence of 20uM ATP
[17] = target: Mitogen-activated protein kinase 9 (Homo sapiens, UniProt P45984); experiment: Inhibition of JNK2 in the presence of 20uM ATP
[18] = target: T3, Serine/threonine-protein kinase pim-3; experiment: Inhibition of PIM3 in the presence of 100uM ATP
[19] = Inhibition of AMPK in the presence of 50uM ATP; parameters: species or system Rattus norvegicus
Casein kinase II = Casein kinase II (Homo sapiens, UniProt P19784+P67870+P68400); experiment: Inhibition of CK2 in the presence of 5uM ATP; type: protein-complex assay
[20] = target: Serine/threonine-protein kinase pim-2 (Homo sapiens, UniProt Q9P1W9); experiment: Inhibition of PIM2 in the presence of 5uM ATP
[21] = target: T3, Serine/threonine-protein kinase pim-3; experiment: Inhibition of PIM3 in the presence of 20uM ATP
[22] = target: Proto-oncogene tyrosine-protein kinase Src (Gallus gallus, UniProt P00523); experiment: Inhibition of Src in the presence of 50uM ATP
Aurora kinase B = Aurora kinase B (Homo sapiens, UniProt Q96GD4); experiment: Inhibition of Aurora B in the presence of 20uM ATP
[23] = target: Serine/threonine-protein kinase 3 (Homo sapiens, UniProt Q13188); experiment: Inhibition of MST2 in the presence of 50uM ATP
[24] = target: Serine/threonine-protein kinase BRSK2 (Homo sapiens, UniProt Q8IWQ3); experiment: Inhibition of BRSK2 in the presence of 50uM ATP
Aurora kinase C = Aurora kinase C (Homo sapiens, UniProt Q9UQB9); experiment: Inhibition of Aurora C in the presence of 5uM ATP
HEK293 [25] = experiment: Inhibition of PKB-S473 phosphorylation in IGF-1 treated HEK293 cells at 0.5uM; type: functional, cell-based; settings: Homo sapiens, filed as antagonist
HEK293 [26] = experiment: Inhibition of CHK2-T68 phosphorylation in MMS treated HEK293 cells at 0.5uM; type: functional, cell-based; settings: Homo sapiens
HEK293 [27] = experiment: Inhibition of CHK1-S345 phosphorylation in MMS treated HEK293 cells at 0.5uM; type: functional, cell-based; settings: Homo sapiens
[28] = target: Mitogen-activated protein kinase 14 (Homo sapiens, UniProt Q16539)
[29] = target: Myosin light chain kinase, smooth muscle (Homo sapiens, UniProt Q15746); experiment: Inhibition of SmMLCK in the presence of 50uM ATP
[30] = target: Dual specificity tyrosine-phosphorylation-regulated kinase 3 (Homo sapiens, UniProt O43781); experiment: Inhibition of DYRK3 in the presence of 5uM ATP
[31] = target: Serine/threonine-protein kinase Sgk1 (Homo sapiens, UniProt O00141); experiment: Inhibition of SGK1 in the presence of 20uM ATP
[32] = target: Casein kinase I isoform delta (Homo sapiens, UniProt P48730)
[33] = target: Serine/threonine-protein kinase PLK1 (Homo sapiens, UniProt P53350); experiment: Inhibition of PLK1 in the presence of 5uM ATP

T1 sequence (O43353 whole entry): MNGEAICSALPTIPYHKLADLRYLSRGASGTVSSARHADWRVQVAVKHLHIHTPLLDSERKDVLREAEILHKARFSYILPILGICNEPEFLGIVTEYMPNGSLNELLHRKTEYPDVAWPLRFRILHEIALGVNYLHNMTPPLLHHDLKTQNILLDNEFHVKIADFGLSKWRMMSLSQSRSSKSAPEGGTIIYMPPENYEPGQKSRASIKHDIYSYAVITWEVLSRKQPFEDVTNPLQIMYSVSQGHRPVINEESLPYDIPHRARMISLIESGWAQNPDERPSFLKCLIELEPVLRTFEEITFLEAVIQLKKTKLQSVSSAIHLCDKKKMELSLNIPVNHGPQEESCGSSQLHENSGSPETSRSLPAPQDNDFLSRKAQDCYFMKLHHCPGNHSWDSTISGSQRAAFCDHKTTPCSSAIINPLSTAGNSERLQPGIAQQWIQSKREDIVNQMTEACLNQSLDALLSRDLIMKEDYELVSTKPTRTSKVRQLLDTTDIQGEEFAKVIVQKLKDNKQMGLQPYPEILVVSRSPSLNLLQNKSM
Proto-oncogene tyrosine-protein kinase LCK, sequence (P06240 whole entry): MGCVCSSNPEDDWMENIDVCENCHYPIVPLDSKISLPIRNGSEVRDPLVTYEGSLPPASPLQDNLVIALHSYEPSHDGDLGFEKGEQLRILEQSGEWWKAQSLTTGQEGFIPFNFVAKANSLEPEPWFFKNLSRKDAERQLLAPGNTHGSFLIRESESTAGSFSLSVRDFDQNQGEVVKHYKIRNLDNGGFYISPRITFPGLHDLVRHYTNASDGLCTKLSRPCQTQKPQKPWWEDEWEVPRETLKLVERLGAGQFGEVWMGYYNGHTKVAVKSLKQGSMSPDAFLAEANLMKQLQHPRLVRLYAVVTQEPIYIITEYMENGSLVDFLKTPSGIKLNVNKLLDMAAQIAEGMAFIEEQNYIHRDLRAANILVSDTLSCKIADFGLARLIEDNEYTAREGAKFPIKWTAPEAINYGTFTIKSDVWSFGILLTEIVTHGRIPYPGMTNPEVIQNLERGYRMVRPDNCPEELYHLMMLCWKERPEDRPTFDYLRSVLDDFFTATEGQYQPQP
Serine/threonine-protein kinase D1, sequence (Q15139 whole entry): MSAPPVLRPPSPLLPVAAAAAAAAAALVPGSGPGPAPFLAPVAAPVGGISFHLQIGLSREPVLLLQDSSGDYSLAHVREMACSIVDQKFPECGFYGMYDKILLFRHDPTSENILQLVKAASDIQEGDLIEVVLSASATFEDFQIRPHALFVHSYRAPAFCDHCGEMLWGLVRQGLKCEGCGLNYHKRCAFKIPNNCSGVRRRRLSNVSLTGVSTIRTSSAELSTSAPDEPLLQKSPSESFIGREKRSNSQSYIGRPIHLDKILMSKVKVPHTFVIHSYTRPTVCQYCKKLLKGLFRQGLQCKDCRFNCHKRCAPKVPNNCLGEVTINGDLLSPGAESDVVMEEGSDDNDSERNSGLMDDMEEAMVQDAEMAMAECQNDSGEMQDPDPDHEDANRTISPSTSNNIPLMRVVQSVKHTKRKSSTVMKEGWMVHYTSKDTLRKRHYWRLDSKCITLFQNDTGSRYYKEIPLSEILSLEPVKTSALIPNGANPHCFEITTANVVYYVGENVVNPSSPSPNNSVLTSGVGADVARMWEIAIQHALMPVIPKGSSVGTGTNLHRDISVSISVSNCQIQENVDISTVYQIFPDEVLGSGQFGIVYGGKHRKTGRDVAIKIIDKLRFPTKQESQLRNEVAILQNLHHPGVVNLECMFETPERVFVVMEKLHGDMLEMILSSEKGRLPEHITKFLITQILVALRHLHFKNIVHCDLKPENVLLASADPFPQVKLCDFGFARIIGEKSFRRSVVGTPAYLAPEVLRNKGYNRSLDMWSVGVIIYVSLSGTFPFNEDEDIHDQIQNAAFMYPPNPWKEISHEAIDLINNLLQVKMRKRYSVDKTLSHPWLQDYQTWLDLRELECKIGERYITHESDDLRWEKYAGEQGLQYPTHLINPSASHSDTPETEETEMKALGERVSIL
Serine/threonine-protein kinase pim-2, sequence (Q9P1W9 whole entry): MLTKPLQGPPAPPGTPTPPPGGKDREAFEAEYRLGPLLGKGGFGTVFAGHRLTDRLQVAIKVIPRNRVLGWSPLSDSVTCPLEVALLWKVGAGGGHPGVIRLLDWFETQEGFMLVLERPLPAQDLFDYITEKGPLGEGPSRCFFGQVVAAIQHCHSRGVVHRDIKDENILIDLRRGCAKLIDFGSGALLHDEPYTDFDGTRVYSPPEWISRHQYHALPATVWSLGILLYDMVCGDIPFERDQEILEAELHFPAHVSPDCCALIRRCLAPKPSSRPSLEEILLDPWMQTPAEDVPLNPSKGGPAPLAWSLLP
Dual specificity tyrosine-phosphorylation-regulated kinase 2, sequence (Q92630 whole entry): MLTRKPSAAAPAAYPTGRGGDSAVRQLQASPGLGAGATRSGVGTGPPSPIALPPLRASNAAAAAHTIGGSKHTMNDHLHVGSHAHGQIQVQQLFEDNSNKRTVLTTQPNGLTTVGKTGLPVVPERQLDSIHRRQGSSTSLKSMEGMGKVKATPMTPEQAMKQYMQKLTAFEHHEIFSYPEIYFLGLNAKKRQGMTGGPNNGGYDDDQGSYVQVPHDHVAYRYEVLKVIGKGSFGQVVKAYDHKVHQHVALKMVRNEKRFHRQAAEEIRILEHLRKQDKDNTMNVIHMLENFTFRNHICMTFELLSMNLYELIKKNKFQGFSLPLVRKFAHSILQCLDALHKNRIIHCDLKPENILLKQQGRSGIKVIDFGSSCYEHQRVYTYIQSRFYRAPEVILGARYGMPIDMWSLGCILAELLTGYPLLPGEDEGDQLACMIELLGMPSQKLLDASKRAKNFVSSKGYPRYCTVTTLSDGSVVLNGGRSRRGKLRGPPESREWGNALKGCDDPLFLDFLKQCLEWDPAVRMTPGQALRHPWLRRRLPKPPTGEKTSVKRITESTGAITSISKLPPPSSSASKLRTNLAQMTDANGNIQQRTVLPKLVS
Aurora kinase B, sequence (Q96GD4 whole entry): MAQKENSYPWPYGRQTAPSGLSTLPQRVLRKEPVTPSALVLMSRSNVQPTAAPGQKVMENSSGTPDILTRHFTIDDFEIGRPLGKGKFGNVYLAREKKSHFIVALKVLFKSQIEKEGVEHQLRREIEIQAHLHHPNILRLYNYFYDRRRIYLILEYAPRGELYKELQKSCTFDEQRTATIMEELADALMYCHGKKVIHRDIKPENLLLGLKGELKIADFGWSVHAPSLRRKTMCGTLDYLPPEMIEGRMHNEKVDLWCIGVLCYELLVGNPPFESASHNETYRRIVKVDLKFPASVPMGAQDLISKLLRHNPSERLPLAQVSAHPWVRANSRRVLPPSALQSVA
Serine/threonine-protein kinase pim-1, sequence (P11309 whole entry): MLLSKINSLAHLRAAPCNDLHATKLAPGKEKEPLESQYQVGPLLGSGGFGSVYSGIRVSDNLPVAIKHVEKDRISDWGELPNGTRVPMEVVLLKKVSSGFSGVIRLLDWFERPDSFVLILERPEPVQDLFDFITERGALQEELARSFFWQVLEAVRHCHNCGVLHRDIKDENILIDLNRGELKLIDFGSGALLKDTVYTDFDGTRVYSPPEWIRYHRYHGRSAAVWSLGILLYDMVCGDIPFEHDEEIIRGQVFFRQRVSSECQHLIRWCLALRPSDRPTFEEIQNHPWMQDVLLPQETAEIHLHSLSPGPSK
Mitogen-activated protein kinase 8 (Homo sapiens, UniProt P45983, M108A), sequence (P45983 whole entry M108A): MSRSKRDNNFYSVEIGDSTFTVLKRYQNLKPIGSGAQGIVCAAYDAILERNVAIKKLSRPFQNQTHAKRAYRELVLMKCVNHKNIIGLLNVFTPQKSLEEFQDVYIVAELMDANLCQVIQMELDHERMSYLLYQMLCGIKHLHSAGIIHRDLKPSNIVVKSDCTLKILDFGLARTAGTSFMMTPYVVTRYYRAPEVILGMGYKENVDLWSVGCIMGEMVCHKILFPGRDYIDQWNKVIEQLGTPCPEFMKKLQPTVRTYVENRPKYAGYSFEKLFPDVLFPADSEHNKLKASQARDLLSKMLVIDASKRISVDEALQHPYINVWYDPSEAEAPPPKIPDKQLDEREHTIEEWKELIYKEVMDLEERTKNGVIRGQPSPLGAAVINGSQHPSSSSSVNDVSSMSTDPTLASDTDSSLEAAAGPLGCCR
Casein kinase I isoform delta, sequence (P48730 whole entry, canonical isoform): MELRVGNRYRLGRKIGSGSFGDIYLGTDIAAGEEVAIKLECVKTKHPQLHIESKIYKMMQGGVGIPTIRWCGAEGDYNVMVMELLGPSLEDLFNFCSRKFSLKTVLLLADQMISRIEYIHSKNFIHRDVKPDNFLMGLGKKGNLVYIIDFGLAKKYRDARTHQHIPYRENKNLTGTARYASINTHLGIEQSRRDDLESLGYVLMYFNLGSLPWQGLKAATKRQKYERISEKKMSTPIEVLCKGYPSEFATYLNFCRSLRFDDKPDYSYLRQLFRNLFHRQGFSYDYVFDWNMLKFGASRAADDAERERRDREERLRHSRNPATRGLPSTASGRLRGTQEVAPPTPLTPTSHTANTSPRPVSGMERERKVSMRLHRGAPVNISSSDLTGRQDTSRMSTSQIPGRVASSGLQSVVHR
Mitogen-activated protein kinase 8 (Homo sapiens, UniProt P45983), sequence (P45983 whole entry): as the sequence (P45983 whole entry M108A) above, with A108M counted along it
Mitogen-activated protein kinase 8 (Homo sapiens, UniProt P45983, M108G), sequence (P45983 whole entry M108G): as the sequence (P45983 whole entry M108A) above, with A108G counted along it

IC50 [1]: 250 nM (antagonist) | IC50 [2]: 460 nM (antagonist) | IC50 [3]: 130 nM (antagonist) | Activity [4]: 5% | IC50 [5]: 250 nM (antagonist) | IC50 [6]: 140 nM (antagonist) | IC50 [7]: 500 nM (antagonist) | IC50 [8]: 510 nM (antagonist) | Activity [9]: 43% | Activity [10]: 14% | Activity [11]: 6%
Compound: CC(C)(C)n1nc(Cc2cccc3ccccc23)c2c(N)ncnc21

IC50 [12]: 2600 nM (antagonist) | IC50 [13]: 30 nM (antagonist) | IC50 [14]: 80 nM (antagonist) | IC50 [15]: 300 nM (antagonist) | IC50 [16]: 40 nM (antagonist) | IC50 [17]: 5000 nM (antagonist)
Compound: N#C/C(=C1/Nc2ccccc2S1)c1ccnc(NCCc2cccnc2)n1

IC50 [18]: 83 nM (antagonist) | IC50 [19]: 160 nM (antagonist) | IC50 (Casein kinase II): 190 nM (antagonist) | IC50 [20]: 110 nM (antagonist) | IC50 [15]: 950 nM (antagonist)
Compound: O=C(O)c1ccc2c3c1cccc3c(=O)n1c3ccccc3nc21

IC50 [1]: 9100 nM (antagonist) | IC50 [28]: 5800 nM (antagonist)
Compound: NC(=O)c1ccc(-c2nc(-c3ccc4c(c3)OCCO4)c(-c3ccccn3)[nH]2)cc1

IC50 [21]: 1400 nM (antagonist) | IC50 [33]: 2000 nM (antagonist)
Compound: O=c1cc(N2CCOCC2)oc2c(-c3ccccc3)cccc12 [LY-294002]

More lines, now with the values behind:

Compound: O=C1Nc2ccc(I)cc2C1=Cc1cc(Br)c(O)c(Br)c1 [GW305074X]
IC50 [14]: 170 nM (antagonist) | Activity [9]: 32% | Activity [10]: 35% | IC50 [20]: 70 nM (antagonist) | IC50 [21]: 100 nM (antagonist)

Compound: CN(C)S(=O)(=O)c1ccc2c(c1)/C(=C/c1cc3c([nH]1)CCCC3)C(=O)N2
IC50 [2]: 150 nM (antagonist) | IC50 [22]: 100 nM (antagonist) | IC50 [19]: 110 nM (antagonist) | IC50 (Aurora kinase B): 19 nM (antagonist) | IC50 [23]: 110 nM (antagonist) | IC50 [24]: 100 nM (antagonist) | IC50 (Aurora kinase C): 17 nM (antagonist)

Compound: Oc1cccc(-c2nc(N3CCOCC3)c3oc4ncccc4c3n2)c1
Activity (HEK293 [25]): Antagonist | Activity (HEK293 [26]): inactive | Activity (HEK293 [27]): inactive

Compound: COC[C@H]1OC(=O)c2coc3c2[C@@]1(C)C1=C(C3=O)[C@@H]2CCC(=O)[C@@]2(C)C[C@H]1OC(C)=O [WORTMANNIN]
IC50 [29]: 5000 nM (antagonist)

Compound: Nc1ncnc2[nH]nc(Nc3ccc(F)cc3)c12
IC50 [30]: 3200 nM (antagonist) | IC50 [2]: 2500 nM (antagonist) | IC50 (Aurora kinase B): 2500 nM (antagonist) | IC50 [31]: 2700 nM (antagonist) | IC50 [32]: 510 nM (antagonist)
